Several values for one entry are separate records, joined by “and”; a condition that tells them apart may be missing. Equal entries are not always repeated. Entries after “also recorded” stand apart in the source; their conditions may differ.
How the values were obtained:
[1] = Promotion of excretion of ^238 Pu(IV) in mice; type: in vivo; conditions: for Pu / actinide removal, in words: mouse, in vivo
Method: The novel chelating agents of the present invention were tested for their effectiveness in promoting excretion of ^238 Pu(IV) in mice as follows. Groups of five mice each received an intravenous injection of […] of ^238 Pu(IV) in citrate buffer, 9250 Bq/kg body wt. One hour later 30 μmole/kg of ligand (120 μmole/kg of monomeric ligands) was injected intraperitoneally in 0.5 ml of saline. The mice were killed 24 h after the Pu injection, frozen, and dissected after partial thawing. The ^238 Pu in skeleton, tissues, and separated excreta was determined by counting of the ^234 U L xrays.
^c Ligand was administered (30 μmole/kg, i.p.) at 1 hr and mice
were killed at 24 hr after injection (i.v.) of ^238 Pu(IV) citrate.
Dosage of monomers, HOPO--CO2 H and HOPO--COMe2, was 120

[2] = Iron removal bioassay in iron-loaded (transfused) mice; type: in vivo
Method: DFHOPOCAM was tested for its effectiveness in removing iron from iron-loaded mice. The mice tested had undergone three transfusions over five days of heat-treated canine red blood cells. Both low i.p. doses (about 20 mg/kg) and high doses (about 200 mg/kg) were administered, in aqueous solution.
Changes in splenic, hepatic, fecal and urinary iron in transfused
male mice treated with potential iron chelators for several days

transferrin = experiment: Removal of iron from transferrin; type: biochemical
Method: (§1) Removal of Iron From Transferrin: The effectiveness of 3HOPOCAM as a ferri ion chelator was evaluated in terms of its potential for removing iron from transferrin. In order to account for the effect of proton competitio in the ligand strength comparisons, the relative ironbinding abilities of the ligands were ranked by the pM value, defined as -log [Fe^+3 ] of pH 7.4 solution that is 10^-5 M in total ligand and 10^-6 M in total iron. The pM for 3HOPOCAM was determined (by binding competition experiments with EDTA) to be 21.7, about 4 to 14 units lower than the pM value for siderophores containing three bidentate catechol or hydroxamate groups. […] Ligands incorporating more than two "HOPO" groups should be effective in removing iron from transferrin at even lower concentrations.

[3] = Relative iron-binding ability (pM value) by binding competition with EDTA
Method: as §1

[4] = Acute toxicity in mice, single i.p. injection; conditions: mouse, in vivo, ip, Table 3, 1000 (*) or 500 (**) μmole/kg, read-out: acute toxicity (asterisk), lethality in 7 days
Method: A test of acute toxicity was also carried out, as follows. Two mice were each given a single i.p. injection of 100, 500, or 1000 μmole/kg of ligand dissolved in 0.5 to 1.0 ml of saline at pH=7.5. Sparingly soluble ligands, dispersed by sonication, were given as finely divided suspensions. After 7 days observation, the mice were killed, selected tissues were removed and fixed for histopathological examination, and unusual findings at autopsy were recorded.
^a Single or double asterisks indicate acutely toxic (50% to 100%
lethality) in 7 days after a single i.p. injection of 1000 or 500
μmole/kg, respectively.

[5] = higher dose, about 200 mg/kg i.p.

Compound: CC(=O)N(O)CCCCCNC(=O)CCC(=O)N(O)CCCCCNC(=O)CCC(=O)N(O)CCCCCNC(=O)c1cccc(=O)n1O [DFHOPOCAM]
- newly injected Pu excreted in 24 hr ([1]; 24 hr): 86%
- Pu / actinide removal, in words [1]: extremely effective; also recorded: most effective removal of such ions
- Pu / actinide removal, in words ([1]; listed as HOPOsubstituted desferrioxamine): most effective Pu removal agent
- Number Survivors ([2]; 20 mg/kg i.p.): 10/10
- Percent Iron Changes vs. Control, Feces ([2]; 20 mg/kg i.p.): +21%
- Percent Iron Changes vs. Control, Liver ([2]; 20 mg/kg i.p.): -28%
- Percent Iron Changes vs. Control, Spleen ([2]; 20 mg/kg i.p.): -11%
- Percent Iron Changes vs. Control, Urine ([2]; 20 mg/kg i.p.): +39%
- Potency vs. Standard ([2]; 20 mg/kg i.p.): 4.5
- Toxic Signs ([2]; 20 mg/kg i.p.): none
- Number Survivors ([2]; 200 mg/kg i.p.): 10/10
- Percent Iron Changes vs. Control, Feces ([2]; 200 mg/kg i.p.): +4%
- Percent Iron Changes vs. Control, Liver ([2]; 200 mg/kg i.p.): -59%
- Percent Iron Changes vs. Control, Spleen ([2]; 200 mg/kg i.p.): -17%
- Percent Iron Changes vs. Control, Urine ([2]; 200 mg/kg i.p.): +93%
- Potency vs. Standard ([2]; 200 mg/kg i.p.): 0.8
- damage to excretory pathways from excess metabolic iron ([2]; about 20 and about 200 mg/kg i.p., daily excreta, five-day recovery period): reversal of most of the damage to excretory pathways
- source of iron ([2]; both low and high doses): predominantly the liver
- Potency relative to Desferal ([2]; dose not given): about 4.5
- behavior and major organs [2, 5]: not grossly affected
- change in fecal iron content, in words [2, 5]: little change in iron content
- change in urine volume [2, 5]: -6%
- decrease in liver iron [2, 5]: 59%
- depression of fecal output [2, 5]: 24%
- fall in liver weight [2, 5]: 14%
- fall in spleen iron content [2, 5]: 17%
- increase in spleen weight [2, 5]: 25%
- rise in urinary iron [2, 5]: 93%
- decrease in water imbibition ([2]; higher dose, about 200 mg/kg i.p., compared with low dose): about the same order of magnitude as that seen for the low dose
- major route of excretion ([2]; iron excretion): through the kidneys
- behavior ([2]; low dose, about 20 mg/kg i.p.): not affected
- change in organ (spleen) weight, in words ([2]; low dose, about 20 mg/kg i.p.): not accompanied by a significant change in organ weight
- decline in hepatic (liver) weight ([2]; low dose, about 20 mg/kg i.p.): 8%
- decline in splenic iron ([2]; low dose, about 20 mg/kg i.p.): 11%
- decrease in hepatic iron ([2]; low dose, about 20 mg/kg i.p.): 28%
- fall in fecal output ([2]; low dose, about 20 mg/kg i.p.): 8%
- increase in excretion of iron via the feces ([2]; low dose, about 20 mg/kg i.p.): 21%
- increase in spleen weight ([2]; low dose, about 20 mg/kg i.p.): 4%
- increase in urinary iron ([2]; low dose, about 20 mg/kg i.p.): 39%
- necropsy: size or color of major organs ([2]; low dose, about 20 mg/kg i.p.): failed to reveal any changes in the size or color of major organs
- stimulation of urine production ([2]; low dose, about 20 mg/kg i.p.): 24%
- relative potency (highest fraction of iron excreted), ranking ([2]; mouse, in vivo): greatest
- toxicity to the kidneys, ranking ([2]; of a number of compounds tested): least toxic to the kidneys

Compound: O=C(O)CN(CCN(CC(=O)O)CC(=O)O)CCN(CC(=O)O)CC(=O)O [CaNa3 --DTPA, reference compound]
- ^238 Pu Excreta (urine and feces, one value) ([1]; ligand 30 μmole/kg i.p. at 1 hr, killed 24 hr after Pu): 70% of injected ^238 Pu

Compound: O=C(NCCCNC(=O)c1cccc(=O)n1O)c1cccc(=O)n1O [3-HOPOCAM]
- concentration at which iron was removed from transferrin (transferrin): approximately mM concentrations
- iron removed from transferrin (transferrin; 30 min., 1.6 mM solution): about 29%
- pM value (-log [Fe^+3 ]) ([3]; pH 7.4, 10^-5 M total ligand, 10^-6 M total iron, competition with EDTA): 21.7

Compound: CC(=O)N(O)CCCCCNC(=O)CCC(=O)N(O)CCCCCNC(=O)CCC(=O)N(O)CCCCCN [Desferrioxamine, reference compound]
- Number Survivors ([2]; 250 mg/kg i.p.): 240/240 and 150/150
- Toxic Signs ([2]; 250 mg/kg i.p.): none

Compound: O=C(NCCCN(CCCCN(CCCNC(=O)c1cccc(=O)n1O)C(=O)c1cccc(=O)n1O)C(=O)c1cccc(=O)n1O)c1cccc(=O)n1O [3,4,3-HOPOCAM]
- mortality at 168 h [4]: 50 to 100%

Compound: transferrin: transferrin, iron source in the iron removal test
- pM value (-log [Fe^+3 ]) of transferrin ([3]; pH 7.4, assuming [HCO3^- ]=0.024M): about 23.6

Compound: O=C(NCc1cc(CNC(=O)c2cccc(=O)n2O)cc(CNC(=O)c2cccc(=O)n2O)c1)c1cccc(=O)n1O [HOPO--MECAM]
- mortality at 168 h [4]: 50 to 100%

Compound: O=C(NCCCCN(CCCNC(=O)c1cccc(=O)n1O)C(=O)c1cccc(=O)n1O)c1cccc(=O)n1O [3,4-HOPOCAM]
- mortality at 168 h [4]: 50 to 100%

Source: patent publication US4698431A, “Hydroxypyridonate chelating agents” (priority 1985, dated 1987)
